In US20100009956A1, “NOVEL SUBSTITUTED PYRIMIDINES AS CYSTEINE PROTEASE INHIBITORS” (Glaxo Group Limited , a corporation, priority 2006, published 2010):
Where a name gives a salt, the structure may show the parent alone. Read-outs that look alike come from different tables or passages of the source.

Experiments:
Assay type in all cases: biochemical
Falcipain-2 = Falcipain-2 (Plasmodium falciparum, UniProt Q8I6U4); test: Falcipain-2 enzymatic assay (assay 1)
How it was run: (§1)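 Recombinant parasite enzyme with 30 uM H-D-VLR-AFC in 100 mM sodium acetate pH 5.5, 10 mM DTT, 0.5 mM CHAPS, 1% DMSO, ambient temperature. Endpoint after 60 minutes, quenched with 16.6 uM E-64; AFC fluorescence (ex 405/em 530). IC50 from four-parameter fit, apparent KI assuming competitive inhibition.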

Cathepsin K = biological target: T1, Cathepsin K (Homo sapiens, UniProt P43235); test: Cathepsin K enzymatic assay (assay 1); details: human recombinant enzyme, Z-FR-AFC substrate, pH 5.5
T1 sequence (P43235 115-329): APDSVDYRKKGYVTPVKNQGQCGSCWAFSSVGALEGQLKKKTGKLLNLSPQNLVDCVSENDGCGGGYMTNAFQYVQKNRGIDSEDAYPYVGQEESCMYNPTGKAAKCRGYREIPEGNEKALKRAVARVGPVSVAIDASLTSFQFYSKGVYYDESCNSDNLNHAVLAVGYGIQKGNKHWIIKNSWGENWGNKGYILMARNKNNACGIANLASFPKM
How it was run: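 Human recombinant cathepsin K was assayed with the fluorogenic substrate Z-FR-AFC at 20 uM in 100 mM sodium acetate, pH 5.5, with 5 mM L-cysteine, 1 mM CHAPS, 5 mM EDTA and 1% DMSO. Enzyme plus substrate was added to wells holding inhibitor in DMSO. After 60 minutes at ambient temperature, 16.6 uM E-64 quenched the reaction. AFC fluorescence (excitation 405 nm, emission 530 nm) was read, and IC50 came from a four-parameter dose-response fit.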

Cathepsin S = Cathepsin S (Homo sapiens, UniProt P25774); test: Cathepsin S enzymatic assay (assay 1); details: human recombinant enzyme, KQKLR-AMC substrate, pH 6.5
Sequence of Cathepsin S (P25774 115-331): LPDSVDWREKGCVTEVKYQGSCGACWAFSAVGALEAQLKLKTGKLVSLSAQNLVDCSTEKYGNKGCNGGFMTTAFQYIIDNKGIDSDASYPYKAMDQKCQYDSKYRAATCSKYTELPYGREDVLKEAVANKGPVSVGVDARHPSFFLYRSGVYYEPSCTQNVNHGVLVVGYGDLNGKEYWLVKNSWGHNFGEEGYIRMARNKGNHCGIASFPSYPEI
Method: Assay 1) Determination of Falcipain-2, Falcipain-3, Vivapain-2, Cathepsin K Cathepsin S, Cathepsin L, and Cathepsin B Proteolytic Catalytic Activity
Assays for Falcipain-2, Falcipain-3, and Vivapain-2 are carried out with parasitic recombinant enzymes. Cathepsins K, S, L, and B are carried out with human recombinant enzymes. Standard assay conditions for the determination of kinetic constants used a fluorogenic peptide substrate, typically H-D-VLR-AFC (Falcipain-2, Falcipain-3, Vivapain-2), Z-FR-AFC (Cathepsin K, L, B), or KQKLR-AMC (Cathepsin S) and are determined in 100 mM sodium acetate, pH 5.5, containing 10 mM DTT and 0.5 mM CHAPS (Falcipain-2, Falcipain-3, Vivapain-2), and 100 mM sodium acetate, pH 5.5, containing 5 mM L-cysteine, 1 mM CHAPS and 5 mM EDTA (Cathepsin K, L, B), or 50 mM MES, pH 6.5, containing 0.5 mM CHAPS, 10 mM L-CYS, 5 mM EDTA (Cathepsin S). Stock substrate solutions are prepared at 20 mM in DMSO. The activity assays contained 30 uM substrate (Falcipain-2, Falcipain-3, Vivapain-2), 20 uM substrate (Cathepsin K), 25 uM substrate (Cathepsin B), 5 uM substrate (Cathepsin L), and 30 uM substrate (Cathepsin S). All assays contained 1% DMSO. […] All assays are conducted at ambient temperature as end point assays being quenched after 60 minutes with the exception of Cathepsin S at 90 minutes, with 16.6 uM E-64 in 1% DMSO. Product formation (AFC or AMC) is determined from fluorescence (excitation at 405 nm; emission at 530 nm, AFC, or excitation at 360 nm; emission at 460 nm, AMC) monitored with a LJL Aquest (Molecular Devices) fluorescent plate reader. In the case of kinetic reads (used in mechanism of action studies), the reaction is not quenched but is read in the plate reader every 3 minutes for approximately 90 minutes. In addition, the mechanism of action studies for Falcipain-2 utilize Z-LR-AMC as the substrate. Product formation is determined from the fluorescence of AMC, measured with a LJL Acquest (Molecular Devices) fluorescent plate reader (excitation at 360 nm; emission at 460 nm).
Potential inhibitors are evaluated using the quenched read (endpoint) method. Assays are carried out in the presence of variable concentrations of test compound. Reactions are initiated by addition of enzyme and substrate to wells containing inhibitor stamped in 100% DMSO. For endpoint assays, the reaction is quenched with the addition of E64. Dose response data is fit to an IC50 curve with preset fitting tools according to equation 1:
y=a+(b−a)/(1+(10^x/10^c)^d) (1)
where y is the response at a particular inhibitor concentration x, a is the minimum response value, b is the maximum response value, c is the IC50, and d is the slope of the IC50 curve. Assuming the compound is a competitive inhibitor, the apparent KI can be calculated from IC50, as shown in equation 2: […]

Falcipain-3 = Falcipain-3 (Plasmodium falciparum, UniProt Q8IIL0); test: Falcipain-3 enzymatic assay (assay 1)
Sequence of Falcipain-3 (Q8IIL0 243-492): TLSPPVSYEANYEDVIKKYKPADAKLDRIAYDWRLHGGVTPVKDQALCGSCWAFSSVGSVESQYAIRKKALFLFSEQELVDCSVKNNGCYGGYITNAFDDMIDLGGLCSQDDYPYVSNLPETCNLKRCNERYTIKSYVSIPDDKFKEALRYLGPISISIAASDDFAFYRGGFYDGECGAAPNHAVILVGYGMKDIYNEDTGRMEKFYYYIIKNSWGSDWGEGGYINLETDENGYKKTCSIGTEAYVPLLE
How it was run: as §1

[1] = parasitic recombinant enzyme, H-D-VLR-AFC substrate, pH 5.5, endpoint read, read-out: Falcipain-3 IC50

Sequence of Falcipain-2 (Q8I6U4 244-484): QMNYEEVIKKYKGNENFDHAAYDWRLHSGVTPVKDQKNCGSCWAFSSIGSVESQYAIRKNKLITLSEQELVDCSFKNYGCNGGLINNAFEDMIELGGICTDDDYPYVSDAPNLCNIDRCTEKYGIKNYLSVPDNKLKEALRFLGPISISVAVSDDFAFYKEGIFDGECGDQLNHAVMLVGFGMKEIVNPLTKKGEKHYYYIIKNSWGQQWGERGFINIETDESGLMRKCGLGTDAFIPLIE

SMILES: CC1CCC(N(NC(=O)c2ccc(CN3CCC(N4CCN(C)CC4)CC3)cc2)c2nc(C#N)ncc2Br)C1 (mixture of isomers) [Example 4, N′-(5-bromo-2-cyano-4-pyrimidinyl)-N′-(3-methylcyclopentyl)-4-{[4-(4-methyl-1-piperazinyl)-1-piperidinyl]methyl}benzohydrazide trifluoroacetate]
- IC50 (Falcipain-2): < 1 nM
- IC50 (Cathepsin K): < 1.5 nM
- IC50 (Cathepsin S): < 1000 nM
- IC50 (Falcipain-3): 1 to 2.5 nM

SMILES: CC1CCC(N(NC(=O)c2ccc(CN3CCN(CC4CCN(C)CC4)CC3)cc2)c2nc(C#N)ncc2Br)C1 (mixture of isomers) [Example 5, N′(5-bromo-2-cyano-4-pyrimidinyl)-N′-(3-methylcyclopentyl)-4-({4-[(1-methyl4-piperidinyl)methyl]-1-piperazinyl}methyl)benzohydrazide trifluoroacetate]
- IC50 (Falcipain-2): < 1 nM
- IC50 (Cathepsin K): < 1.5 nM
- IC50 (Cathepsin S): < 1000 nM
- IC50 (Falcipain-3): 15 to 150 nM

SMILES: CN1CCN(Cc2ccc(C(=O)NN(c3nc(C#N)ncc3Br)C3CCCC3)cc2)CC1 [Example 1, N′-(5-bromo-2-cyano-4-pyrimidinyl)-N′-cyclopentyl-4-[(4-methyl-1-piperazinyl)methyl]benzohydrazide trifluoroacetate]
- IC50 (Falcipain-2): < 1 nM
- IC50 (Cathepsin K): < 1.5 nM
- IC50 (Cathepsin S): < 200 nM

SMILES: CN1CCN(C2CCN(Cc3ccc(C(=O)NN(c4nc(C#N)ncc4Br)C4CCCCC4)cc3)CC2)CC1 [Example 17, N′-(5-bromo-2-cyano-4-pyrimidinyl)-N′-cyclohexyl-4-{[4-(4-methyl-1-piperazinyl)-1-piperidinyl]methyl}benzohydrazide trifluoroacetate]
- IC50 (Falcipain-2): < 1 nM
- IC50 (Cathepsin K): < 1.5 nM
- IC50 (Cathepsin S): < 1000 nM
- IC50 (Falcipain-3): 2.5 to 15 nM

SMILES: CN1CCCC(CN2CCN(Cc3cccc(C(=O)NN(c4nc(C#N)ncc4Br)C4CCCCC4)c3)CC2)C1 (stereo not shown) [Example 27, N′-(5-bromo-2-cyano-4-pyrimidinyl)-N′-cyclohexyl-3-({4-[(1-methyl-3-piperidinyl)methyl]-1-piperazinyl}methyl)benzohydrazide trifluoroacetate]
- IC50 (Falcipain-2): < 1 nM
- IC50 (Cathepsin K): < 1.5 nM
- IC50 (Cathepsin S): < 1000 nM
- IC50 (Falcipain-3): 2.5 to 15 nM

SMILES: CN1CCN(C2CCN(Cc3ccc(C(=O)NN(c4nc(C#N)ncc4Cl)C4CCCCC4)cc3)CC2)CC1 [Example 40, N′-(5-chloro-2-cyano-4-pyrimidinyl)-N′-cyclohexyl-4-{[4-(4-methyl-1-piperazinyl)-1-piperidinyl]methyl}benzohydrazide]
- IC50 (Falcipain-2): < 1 nM
- IC50 (Cathepsin K): < 1.5 nM
- IC50 (Cathepsin S): < 200 nM
- IC50 (Falcipain-3; [1]): 2.5 to 15 nM

SMILES: CN1CCN(C2CCN(Cc3ccc(C(=O)NN(c4nc(C#N)ncc4Cl)C4CCCCC4)cc3)CC2)CC1 [Example 41, N′-(5-chloro-2-cyano-4-pyrimidinyl)-N′-cyclohexyl-4-{([4-(4-methyl-1-piperazinyl)-1-piperidinyl]methyl}benzohydrazidedihydrochloride]
- IC50 (Cathepsin K): < 1.5 nM
- IC50 (Cathepsin S): < 200 nM

SMILES: CN(CCC1OCCO1)Cc1ccc(C(=O)NN(c2nc(C#N)ncc2Cl)C2CCCC2)cc1 [Example 61, N′-(5-chloro-2-cyano-4-pyrimidinyl)-N′-cyclopentyl-4-{[[2-(1,3-dioxolan-2-yl)ethyl](methyl)amino]methyl}benzohydrazide trifluoroacetate]
- IC50 (Falcipain-2): < 1 nM
- IC50 (Cathepsin S): < 200 nM
- IC50 (Falcipain-3): 2.5 to 15 nM

SMILES: CN(CCc1ccccc1)Cc1ccc(C(=O)NN(c2nc(C#N)ncc2Cl)C2CCCC2)cc1 [Example 62, N′-(5-chloro-2-cyano-4-pyrimidinyl)-N′-cyclopentyl-4-{[methyl(2-phenylethyl)amino]methyl}benzohydrazide trifluoroacetate]
- IC50 (Falcipain-2): < 1 nM
- IC50 (Cathepsin S): < 200 nM
- IC50 (Falcipain-3): 2.5 to 15 nM

SMILES: CN(CCCc1ccccc1)Cc1ccc(C(=O)NN(c2nc(C#N)ncc2Cl)C2CCCC2)cc1 [Example 64, N′-(5-chloro-2-cyano-4-pyrimidinyl)-N′-cyclopentyl-4-{[methyl(3-phenylpropyl)amino]methyl}benzohydrazide trifluoroacetate]
- IC50 (Falcipain-2): < 1 nM
- IC50 (Cathepsin S): < 200 nM
- IC50 (Falcipain-3): 2.5 to 15 nM

SMILES: CN(Cc1ccc(C(=O)NN(c2nc(C#N)ncc2Cl)C2CCCC2)cc1)C1CCC2(CC1)OCC(C)(C)CO2 [Example 65, N′-(5-chloro-2-cyano-4-pyrimidinyl)-N′-cyclopentyl-4-{[(3,3-dimethyl-1,5-dioxaspiro[5.5]undec-9-yl)(methyl)amino]methyl}benzohydrazide trifluoroacetate]
- IC50 (Falcipain-2): 1 to 2.5 nM
- IC50 (Cathepsin S): < 200 nM
- IC50 (Falcipain-3): 2.5 to 15 nM

SMILES: CCN(CC)Cc1ccc(C(=O)NN(c2nc(C#N)ncc2Cl)C2CCCC2)cc1 [Example 66, N′-(5-chloro-2-cyano-4-pyrimidinyl)-N′-cyclopentyl-4-[(diethylamino)methyl]benzohydrazide trifluoroacetate]
- IC50 (Falcipain-2): < 1 nM
- IC50 (Cathepsin S): < 200 nM
- IC50 (Falcipain-3): 2.5 to 15 nM

SMILES: CCN(Cc1ccc(C(=O)NN(c2nc(C#N)ncc2Cl)C2CCCC2)cc1)C1CCCCC1 [Example 69, N′-(5-chloro-2-cyano-4-pyrimidinyl)-4{[cyclohexyl(ethyl)amino]methyl}-N′-cyclopentylbenzohydrazide trifluoroacetate]
- IC50 (Falcipain-2): < 1 nM
- IC50 (Cathepsin S): < 200 nM
- IC50 (Falcipain-3): 2.5 to 15 nM

SMILES: N#Cc1ncc(Cl)c(N(NC(=O)c2ccc(CN3CCC(O)CC3)cc2)C2CCCC2)n1 [Example 70, N′-(5-chloro-2-cyano-4-pyrimidinyl)-N′-cyclopentyl-4-[(4-hydroxy-1-piperidinyl)methyl]benzohydrazide trifluoroacetate]
- IC50 (Falcipain-2): < 1 nM
- IC50 (Cathepsin S): < 200 nM
- IC50 (Falcipain-3): 2.5 to 15 nM

SMILES: CN(Cc1ccc(C(=O)NN(c2nc(C#N)ncc2Cl)C2CCCC2)cc1)C(C)(C)Cc1ccccc1 [Example 71, N′-(5-chloro-2-cyano-4-pyrimidinyl)-N′-cyclopentyl-4-{[(1,1-dimethyl-2-phenylethyl)(methyl)amino]methyl}benzohydrazide trifluoroacetate]
- IC50 (Falcipain-2): < 1 nM
- IC50 (Cathepsin S): < 200 nM
- IC50 (Falcipain-3): 2.5 to 15 nM

SMILES: CC(C)N(Cc1ccc(C(=O)NN(c2nc(C#N)ncc2Cl)C2CCCC2)cc1)C(C)C [Example 72, 4-{[bis(1-methylethyl)amino]methyl}-N′-(5-chloro-2-cyano-4-pyrimidinyl)-N′-cyclopentylbenzohydrazide trifluoroacetate]
- IC50 (Falcipain-2): < 1 nM
- IC50 (Cathepsin S): < 200 nM
- IC50 (Falcipain-3): 2.5 to 15 nM

SMILES: CCN(CCCNC(=O)OC(C)(C)C)Cc1ccc(C(=O)NN(c2nc(C#N)ncc2Cl)C2CCCC2)cc1 [Example 81, 1,1-dimethylethyl{3-[[(4-{[2-(5-chloro-2-cyano-4-pyrimidinyl)-2-cyclopentylhydrazino]carbonyl}phenyl)methyl](ethyl)amino]propyl}carbamate]
- IC50 (Falcipain-2): < 1 nM
- IC50 (Cathepsin S): < 200 nM
- IC50 (Falcipain-3; [1]): 2.5 to 15 nM
